According to patent publication US12403151B2, “Compositions for use in the promotion of intestinal muscle growth and development and associated intestinal motility” (SOCIETE DES PRODUITS NESTLE S.A., priority 2017, dated 2025):
Entries after “also recorded” stand apart in the source; their conditions may differ.

Test system: muscle layer of the ileum
Assay: Thickness of the muscle layer of the ileum in young IUGR rats supplemented with HMOs
Type: in vivo, Sprague-Dawley rats
Details: IUGR rat pups; 3 g/kg body weight HMO by gavage d7 to d21, then 4.5% HMO in diet d22 to d57 (mix: LNnT:2FL 1:2 by weight, 1.5% + 3%); sacrificed at day 57; H&E histology; compared with Normal and IUGR control groups
Text: Three groups of time-mated pregnant Sprague-Dawley female rats were bought from Charles River laboratories. One group was submitted to food restriction of 60% during the last 10 days of gestation and their offspring were cross-fostered to normally fed rats. A second group of pregnant females was normally fed and their offspring cross-fostered among the same group of dams. Immediately after birth (postnatal day 2 (d=2)), the born rat pups—subjects of the experiment—were assigned to one of the following groups: • Normal group (positive control): Normal-weight offspring born from unrestricted dams and fed after birth a normal non-supplemented diet; • IUGR group (negative control; n=20): IUGR rats being fed a normal diet after birth; • IUGR rats+HMO (test groups): During the experiment, they were reared by their mothers for 21 days and supplemented with HMOs (2-FL, LNnT or the Mix of 2-FL and LNnT). At weaning, they were fed a diet supplemented with the same HMOs, see details below. […]
Rats were sacrificed at day 57 after a 6-hr fasting period and samples of the small intestine were collected. The thickness of the muscle layer was measured on a sample of the ileum. […]

| Compound | thickness of the muscle layer of the ileum (mean per group, FIG. 1) |
| --- | --- |
| 2′-fucosyllactose [2FL, reference compound] | no increase in intestinal muscle thickness |
| CC(=O)N[C@H]1[C@H](O[C@H]2[C@@H](O)[C@@H](CO)O[C@@H](O[C@H]3[C@H](O)[C@@H](O)C(O)O[C@@H]3CO)[C@@H]2O)O[C@H](CO)[C@@H](O[C@@H]2O[C@H](CO)[C@H](O)[C@H](O)[C@H]2O)[C@@H]1O (mixture of isomers) [LNnT, lacto-N-neotetraose] | successful in increasing the thickness; also recorded: increase of the ileum muscle thickness over both the Normal and the IUGR groups |
